The record followed here is patent US20240360114A1 (SIRONAX LTD., priority 2021, published 2024).

The test system of one test is HT-1080 cells. Kind of test: HT-1080 cell viability assay (ferroptosis induced by RSL3, Cell Titer-Glo). Conditions: Homo sapiens, HT-1080, 20 h, ferroptosis inducer RSL3, 20 hours, ferroptosis inhibitory activity, Table 2. It is filed as cell-based. The protocol:
Example 2. Determination of EC50 Values in HT-1080 Cell Viability Assay
HT-1080 (ATCC, CCL-121) cells (6000 in 100 μl) were seeded in 96-well plates (Corning) and cultured in a 37° C. incubator with a humidified atmosphere of 5% CO2 for overnight. Cells were then treated with ferroptosis inducer RSL3 (TargetMol) and a 3-fold, 10-point serial dilution series of compounds with 1.1 μM as the highest concentration, for 20 hours. Cell viability was assessed using the Cell Titer-Glo Kit (Promega). The luminescence intensity was measured with a microplate reader (Envision, PerkinElmer), and cell viability was calculated by normalizing the data to untreated controls. The EC50 values of the compounds (e.g., Compounds 1-573 and 574-661) were calculated in GraphPad Prism (GraphPad Software, Inc., San Diego, CA, USA). The curves were fitted using a non-linear regression model with a sigmoidal dose response.
On to `CC1(CN)CCC(Nc2ccc(C(C)(C)C)cc2)CC1` (stereo not drawn) [Compound 339, N-(4-(aminomethyl)-4-methylcyclohexyl)-4-(tert-butyl)aniline], for which the EC50 is 0.1 to 100 nM. In turn, `NC1CCC(Nc2ccc(N3CCC(C(F)(F)F)CC3)cc2)CC1` (stereo not drawn) [Compound 40, N1-(4-(4-(trifluoromethyl)piperidin-1-yl)phenyl)cyclohexane-1,4-diamine] showed an EC50 of 0.1 to 100 nM. The compound `CC(C)(C)c1ccc(NC2CCC(CN)CC2)cc1` (stereo not drawn) [Compound 96, N-(4-(aminomethyl)cyclohexyl)-4-(tert-butyl)aniline] had an EC50 of 0.1 to 100 nM.

Compound `CC1CN(c2ccc(NC3CCCCC3N)c(F)c2)CC(C)O1` (stereo not drawn) [Compound 441, N1-(4-(2,6-dimethylmorpholino)-2-fluorophenyl)cyclohexane-1,2-diamine] yielded a half-maximal effective concentration (EC50) of 100 to 1000 nM. In turn, `CN(C)C(=O)C1CCC(Nc2ccc(N3CCC(C(F)(F)F)CC3)cc2)CC1` (stereo not drawn) [Compound 366, N,N-dimethyl-4-((4-(4-(trifluoromethyl)piperidin-1-yl)phenyl)amino)cyclohexane-1-carboxamide] showed an EC50 of 0.1 to 100 nM.

`CC1(C)CCN(c2ccc(NC3CCC(N)CC3)cc2)CC1` (stereo not drawn) [Compound 62, N1-(4-(4,4-dimethylpiperidin-1-yl)phenyl)cyclohexane-1,4-diamine] yielded an EC50 of 0.1 to 100 nM. Compound `CCCCC1CCN(c2ccc(NC3CCC(CN)CC3)c(C)n2)CC1` (stereo not drawn) [Compound 30, N-(4-(aminomethyl)cyclohexyl)-6-(4-butylpiperidin-1-yl)-2-methylpyridin-3-amine] yielded an EC50 of 0.1 to 100 nM. In the case of `N[C@H]1CC[C@H](CNc2ccc(N3CC4CCC(C3)O4)c(F)c2)CC1` [Compound 472, N-(((1r,4r)-4-aminocyclohexyl)methyl)-4-(8-oxa-3-azabicyclo[3.2.1]octan-3-yl)-3-fluoroaniline], the EC50 was 0.1 to 100 nM. Turning to `Cc1cc(N2CCC(C(F)(F)F)CC2)c(C)cc1NC1CCC(N)CC1` (stereo not drawn) [Compound 59, N1-(2,5-dimethyl-4-(4-(trifluoromethyl)piperidin-1-yl)phenyl)cyclohexane-1,4-diamine], the EC50 was in the range of 0.1 to 100 nM.

The compound `N[C@H]1CC[C@@H](CNc2ccc3c(c2)CCC3)CC1` [Compound 307, N-(((1s,4s)-4-aminocyclohexyl)methyl)-2,3-dihydro-1H-inden-5-amine] showed an EC50 of 0.1 to 100 nM. `CCCCc1ccc(NC2CCC(N)CC2)cc1` (stereo not drawn) [Compound 137, N1-(4-butylphenyl)cyclohexane-1,4-diamine] came in with an EC50 of 0.1 to 100 nM. The same measure, in the same setting: the result for `O=C1NCC(C(=O)NC2CC3(C2)CC(Nc2ccc(N4CCC(C(F)(F)F)CC4)cc2)C3)N1` (stereo not drawn) [Compound 374, 2-oxo-N-(6-((4-(4-(trifluoromethyl)piperidin-1-yl)phenyl)amino)spiro[3.3]heptan-2-yl)imidazo lidine-4-carboxamide] reads 0.1 to 100 nM. For the compound `NC1CC2(C1)CC(Nc1ccc(N3CCC(C(F)(F)F)CC3)cc1F)C2` (stereo not drawn) [Compound 364, N2-(2-fluoro-4-(4-(trifluoromethyl)piperidin-1-yl)phenyl)spiro[3.3]heptane-2,6-diamine], the EC50 was in the range of 0.1 to 100 nM. Still for that read-out and setting: the result for `Cc1cc(N2CC(C)OC(C)C2)ccc1NC[C@H]1CC[C@H](N)CC1` (stereo partly drawn) [Compound 387, N-(((1r,4r)-4-aminocyclohexyl)methyl)-4-(2,6-dimethylmorpholino)-2-methylaniline] reads 0.1 to 100 nM; that for `Cc1cc(NC2CC3(CC(N)C3)C2)c(C)nc1N1CC(C)OC(C)C1` (stereo not drawn) [Compound 476, N2-(6-(2,6-dimethylmorpholino)-2,5-dimethylpyridin-3-yl)spiro[3.3]heptane-2,6-diamine], 0.1 to 100 nM.

`CC1CN(c2ccc(NC3CCCCC3N)cc2)CC(C)O1` (stereo not drawn) [Compound 440, N1-(4-(2,6-dimethylmorpholino)phenyl)cyclohexane-1,2-diamine] gave a concentration for a half-maximal effect (EC50) of 100 to 1000 nM. As to `CC1CN(c2ccc(NC3CC(N)C3)c(F)c2)CC(C)O1` (stereo not drawn) [Compound 462, N1-(4-(2,6-dimethylmorpholino)-2-fluorophenyl)cyclobutane-1,3-diamine], the half-maximal effective concentration (EC50) lay in the range of 1000 to 10000 nM. Regarding `CC(C)(CN)Nc1ccc(C(C)(C)C)cc1` [Compound 229], the EC50 lay within 1000 to 10000 nM.

Compound `CCCCCCc1cc(NC2CCC(N)CC2)ccc1C(C)(C)C` (stereo not drawn) [Compound 253A, N1-(4-(tert-butyl)-3-hexylphenyl)cyclohexane-1,4-diamine] came in with an EC50 of 0.1 to 100 nM.

As for `CC(C)(C)c1ccc(NC2CCC(NCC(F)(F)F)CC2)cc1` (stereo not drawn) [Compound 168A, N-(4-(tert-butyl)phenyl)-N-(2,2,2-trifluoroethyl)cyclohexane-1,4-diamine], the EC50 is 1000 to 10000 nM.

For the compound `CC1(C)CCC(c2ccc(NC3CCC(CNC(=O)[C@H]4CC(=O)NC(=O)N4)CC3)cc2)CC1` (single isomer, unassigned) [Compound 148A], the EC50 was 0.1 to 100 nM. On the same count and under the same terms, as for `Cc1cc(N2C[C@@H](C)O[C@@H](C)C2)ncc1NC1CC2(CC(N)C2)C1` (stereo partly drawn) [Compound 487, N2-(6-((2S,6R)-2,6-dimethylmorpholino)-4-methylpyridin-3-yl)spiro[3.3]heptane-2,6-diamine], the figure is 100 to 1000 nM; as for `CC(C)(C)c1ccc(NC2CCC(N)(C(=O)O)CC2)cc1` (stereo not drawn) [Compound 189, 1-amino-4-((4-(tert-butyl)phenyl)amino)cyclohexane-1-carboxylic acid], 1000 to 10000 nM; as for `CCC(C)(C)c1ccc(NC[C@H]2CC[C@H](N)CC2)cc1` [Compound 342, N-(((1r,4r)-4-aminocyclohexyl)methyl)-4-(tert-pentyl)aniline], 0.1 to 100 nM. Same read-out and setting: as for `CC(C)(C)c1ccc(NC2CCC(CCCCN)CC2)cc1` (stereo not drawn) [Compound 303, N-(4-(4-aminobutyl)cyclohexyl)-4-(tert-butyl)aniline], the figure is 0.1 to 100 nM. `CC1(C)CCC(c2ccc(NCCCCN)cc2)CC1` [Compound 225, N1-(4-(4,4-dimethylcyclohexyl)phenyl) butane-1,4-diamine] registered an EC50 of 0.1 to 100 nM. `COC1(C(F)(F)F)CCN(c2ccc(NC3CC4(CC(N)C4)C3)c(C)n2)CC1` (stereo not drawn) [Compound 498, N2-(6-(4-methoxy-4-(trifluoromethyl)piperidin-1-yl)-2-methylpyridin-3-yl)spiro[3.3]heptane-2,6-diamine] gave an EC50 of 0.1 to 100 nM. Consider `CCC(CC)c1ccc(NC2CCC(CN)CC2)cc1` (single isomer, unassigned) [Compound 81A, N-(4-(aminomethyl)cyclohexyl)-4-(pentan-3-yl)aniline], for which the EC50 lay within 100 to 1000 nM. Compound `Cc1ccc(NC[C@H]2CC[C@H](N)CC2)cc1C` [Compound 316, N-(((1r,4r)-4-aminocyclohexyl)methyl)-3,4-dimethylaniline] showed an EC50 of 0.1 to 100 nM.

In turn, `Cc1nc(N2CC(C)OC(C)(C)C2)ccc1NC1CC2(CC(N)C2)C1` (stereo not drawn) [Compound 185, N2-(2-methyl-6-(2,2,6-trimethylmorpholino)pyridin-3-yl)spiro[3.3]heptane-2,6-diamine] gave an EC50 of 1000 to 10000 nM.

The compound `CC(C)(C)OC(=O)N[C@H]1CC[C@H](CNc2ccc(N3CC4CC(C3)O4)c(F)c2)CC1` [Compound 506, tert-butyl ((1r,4r)-4-(((4-(6-oxa-3-azabicyclo[3.1.1]heptan-3-yl)-3-fluorophenyl)amino)methyl)cyclohexyl) carbamate] came in with an EC50 of 0.1 to 100 nM. Consider `NC1C[C@@H]2CC(Nc3ccc(N4CCC(C(F)(F)F)CC4)cc3F)C[C@@H]2C1` (stereo partly drawn) [Compound 372, (3aR, 6aS)-N2-(2-fluoro-4-(4-(trifluoromethyl)piperidin-1-yl)phenyl)octahydropentalene-2,5-di amine], for which the EC50 is 0.1 to 100 nM.

Compound `Cc1nc(N2CCSCC2)ccc1NC1CC2(CC(N)C2)C1` (stereo not drawn) [Compound 569, N^2-(2-methyl-6-thiomorpholinopyridin-3-yl) spiro[3.3]heptane-2,6-diamine] gave an EC50 of 0.1 to 100 nM. In turn, `Cc1nc(N2CC(C)OC(C)C2)ccc1NC1C2CC3CC1CC(CN)(C3)C2` (stereo not drawn) [Compound 475A, N-(5-(aminomethyl)adamantan-2-yl)-6-(2,6-dimethylmorpholino)-2-methylpyridin-3-amine] had an EC50 of 0.1 to 100 nM.

Staying with this test, now noted: Homo sapiens, HT-1080, 20 h, ferroptosis inducer RSL3, 20 hours, ferroptosis inhibitory activity, Table 3.
In turn, `Cc1nc(N2CCOC3(CCC3)C2)ccc1NC1CC2(CC(N)C2)C1` (stereo not drawn) [Compound 626, N^2-(2-methyl-6-(5-oxa-8-azaspiro[3.5]nonan-8-yl)pyridin-3-yl)spiro[3.3]heptane-2,6-diamine] returned an EC50 of 0.1 to 100 nM.

Take `Cc1nc(N2CCC(C)(C)CC2)ccc1NC[C@H]1CC[C@H](N)CC1` [Compound 617, N-(((1r,4r)-4-aminocyclohexyl)methyl)-6-(4,4-dimethylpiperidin-1-yl)-2-methylpyridin-3-amine]: the EC50 fell in the range of 0.1 to 100 nM. The compound `Cc1nc(N2CCN(C(=O)C(F)(F)F)C(C)C2)ccc1NC1CC2(CC(N)C2)C1` (stereo not drawn) [Compound 611, 1-(4-(5-((6-aminospiro[3.3]heptan-2-yl)amino)-6-methylpyridin-2-yl)-2-methylpiperazin-1-yl)-2,2,2-trifluoroethan-1-one] returned an EC50 of 0.1 to 100 nM. For the compound `NC1CC2(C1)CC(Nc1ccc3nc(NCC(F)(F)F)ccc3c1)C2` (stereo not drawn) [Compound 639, N^6-(6-aminospiro[3.3]heptan-2-yl)-N^2-(2,2,2-trifluoroethyl) quinoline-2,6-diamine], the EC50 lay within 0.1 to 100 nM.

Still in this test, the particulars now being: ferroptosis inducer RSL3, 20 hours, ferroptosis inhibitory activity, Table 2.
In turn, `NC1CCC(Nc2ccc(N3CCCCC3CO)cc2)CC1` (single isomer, unassigned) [Compound 417B, (1-(4-((4-aminocyclohexyl)amino)phenyl)piperidin-2-yl)methanol] yielded an EC50 of 100 to 1000 nM.

The term EC50 denotes the concentration that produces a half-maximal response. Low readings indicate greater potency, high ones weaker potency.
